Reference: paper PMC8451604, “Rational formulation engineering of fraxinellone utilizing 6-O-α-D-maltosyl-β-cyclodextrin for enhanced oral bioavailability and hepatic fibrosis therapy” (Drug Delivery, 2021)
Values after ≈ are worked out from the molar mass of the structure shown. “Also recorded” adds a separate entry of the source.

Experiments:
[1] = Octanol/water partition coefficient (Log P) measurement; assay type: physicochemical; conditions: octanol/PBS (mutually saturated, equal volumes); pH 1.2, 4.5 and 6.8, 37 °C
Procedure: The mixtures were placed in an air bath shaking at 100 rpm at 37 °C for 24 h. The samples were then centrifuged (12,000 rpm, 10 min) for oil/water phase separation. The drug concentration in these two phases was analyzed by HPLC, respectively.

[2] = Stability of Frax in artificial gastrointestinal fluid (SGF/SIF); assay type: physicochemical; conditions: SGF/SIF with or without enzymes, 37 °C
Procedure: The stability studies were performed according to the previous study (Zhang et al., [2015]). Briefly, 20 μL of DMSO solution of Frax (10 mg/mL) was added to 10 mL of simulated gastric fluid (SGF) or simulated intestinal fluid (SIF) containing pepsin/without pepsin. Afterward, the samples were placed in a shaker (100 rpm, 37 °C). At predetermined timepoints, a suitable amount of samples were withdrawn and mixed with methanol. After a thorough vortex, the mixture was centrifuged and the resulted supernatant was subjected to HPLC to determine Frax content.

[3] = Phase solubility study of Frax with CDs; assay type: physicochemical; conditions: 37 °C; for solubility at 72 h: aqueous with cosolvent or surfactant or cyclodextrin, thermodynamic from solid; for Frax solubility increase: vs water
Procedure: Frax was excessively mixed with increasing molar concentrations (0–350.00 mM) of each CD aqueous solution. […] The samples were subjected to HPLC analysis after centrifugation (4024.8 g, 10 min). Phase solubility profiles were plotted by monitoring Frax concentration as a function of the molar concentration of each CD. Based on the phase solubility curves, we calculated the apparent stability constants (Kc, L/mol) according to Equation (1): (1) Kc=Slope/S0(1−Slope) where S0 is the water solubility of Frax at equilibrium.

[4] = In vitro drug release by dialysis method; assay type: physicochemical; conditions: within 6 h, pH 1.2, 6.8 and 7.4 media, 37 °C
Procedure: In vitro drug release performance was studied by a dialysis method in phosphate buffer (pH 6.8 and 7.4) and 0.1 M HCl (pH 1.2) at 37 °C. Briefly, a certain volume of Frax suspension, SBE-β-CD-Frax, G2-β-CD-Frax, and HP-β-CD-Frax dispersion solution were enclosed in 1500 Da dialysis bags, respectively. The dialysis bag was then transferred and immersed into the release medium under gentle shaking. After 0.5, 1, 1.5, 2, 2.5, 3.5, 4, and 6 h, 1 mL of the release media was aspirated and supplemented with 1 mL of fresh media. The Frax concentration in the samples was analyzed by HPLC. The cumulative drug release (%) was calculated with the following Equation (2) (Chuang et al., [2018]): (2) Drug release (%)=Ve∑1n−1Ci+V0Cn/mFrax where V0 (mL) is the release media volume, Cn (μg/mL) is the drug concentration in the sample, Ve (mL) is the replaced medium volume, and mFrax (mg) is the amount of drug in the sample.

[5] = test system: CCl4-induced liver fibrosis mice; test: CCl4-induced liver fibrosis, therapeutic efficacy; assay type: in vivo, Kunming male mice
Procedure: The Kunming male mice (weight of 28–30 g) were divided into 10 groups (n = 10): normal group, CCl4-induced liver fibrosis group, CCl4 induction treated with Frax or G2-β-CD-Frax treatment groups (5, 10, and 20 mg/kg, respectively), CCl4 induction with colchicine (0.2 mg/kg) treatment group, CCl4 induction with G2-β-CD solution treatment (equivalent to 20 mg/kg of G2-β-CD-Frax) group. The mice in the normal group were treated with olive oil only, while the other groups were intraperitoneally injected with 10% CCl4-olive oil every other week for 10 weeks (5 mL/kg for the first dose and 3 mL/kg for the second starting dose). Drug treatment began on the fourth week of modeling and continued every day for 7 weeks. One day after the last administration, blood in all the groups was immediately harvested for assays of AST and ALT. […] were then sacrificed and livers were collected and divided into two parts for histological examination and Hydroxyproline (HYP) assay, respectively.

[6] = Blood biochemical assay (hematological parameters); assay type: in vivo, Kunming male mice; conditions: mice, 7 weeks; for PLT (platelet) / WBC (white blood cell): in 10^9/L (unit assumed); for RBC (red blood cell): in 10^12/L (unit assumed); for HCT (haematocrit) / RDW-CV (red cell volume distribution width): in % (unit assumed); for MCV (mean cell volume) / MPV (meanplateletvolume) / RDW-SD: in fL (unit assumed); for HGB (hemoglobin): in g/L (unit assumed); for MCH (mean corpuscular hemoglobin): in pg (unit assumed)
Procedure: The Kunming male mice (weight of 28–30 g) were divided into 10 groups (n = 10): normal group, Frax or G2-β-CD-Frax treatment groups with a Frax dose of 5, 10, and 20 mg/kg, respectively, G2-β-CD solution treatment (equivalent to 20 mg/kg of G2-β-CD-Frax) group. Drug treatment continued every day for 7 weeks. One day after the last administration, blood and major tissues (heart, liver, spleen, lung, and kidney) were obtained from the blank group and drug-treated groups (20 mg/kg) for histological examination. The whole blood was directly analyzed using an automatic blood cell analyzer to obtain hematological parameters. The collected tissues were subjected to histological examination.

[7] = design: method as in Ruan et al., 2006; conditions: ref Ruan et al., 2006; cited from earlier work
[8] = oral 5 mg/kg daily for 7 weeks, vs CCl4 group

**Q.** Which logP at 24 h [1] does the source give for `CC1=C2C(=O)O[C@@H](c3ccoc3)[C@]2(C)CCC1` [Frax, Fraxinellone] here?
**A.** Its logP at 24 h is 3.2 ± 0.17.

**Q.** What about the “degradation in simulated GI fluids” value [2] of the same molecule?
**A.** Its value is “rather stable; also recorded: negligible degradation”.

**Q.** And the solubility at 72 h ([3]; 8.82 mM G2-β-CD aqueous solution, with 8.82 mM G2-β-CD)?
**A.** The solubility at 72 h was 430 µg/mL (≈ 1850 µM).

**Q.** What about the solubility at 72 h ([3]; 8.82 mM HP-β-CD aqueous solution, with 8.82 mM HP-β-CD) of the same molecule?
**A.** Its solubility at 72 h is 330 µg/mL (≈ 1420 µM).

**Q.** What about the solubility at 72 h ([3]; 8.82 mM SBE-β-CD aqueous solution, with 8.82 mM SBE-β-CD) of the same molecule?
**A.** Its solubility at 72 h is 600 µg/mL (≈ 2580 µM).

**Q.** And the solubility at 72 h ([3]; 8.82 mM β-CD aqueous solution, with 8.82 mM β-CD)?
**A.** The solubility at 72 h was 310 µg/mL (≈ 1330 µM).

**Q.** What about the solubility at 72 h ([3]; 350 mM G2-β-CD aqueous solution, with 350 mM G2-β-CD) of the same molecule?
**A.** Its solubility at 72 h is 12300 µg/mL (≈ 53000 µM).

**Q.** What about the solubility at 72 h ([3]; 350 mM HP-β-CD aqueous solution, with 350 mM HP-β-CD) of the same molecule?
**A.** The solubility at 72 h was 6550 µg/mL (≈ 28200 µM).

**Q.** And the solubility at 72 h ([3]; 350 mM SBE-β-CD aqueous solution, with 350 mM SBE-β-CD)?
**A.** The solubility at 72 h was 13600 µg/mL (≈ 58400 µM).

**Q.** What about the Frax solubility increase ([3]; with 8.82 mM G2-β-CD) of the same molecule?
**A.** Its Frax solubility increase is 5.45 fold.

**Q.** What about the Frax solubility increase ([3]; with 8.82 mM HP-β-CD) of the same molecule?
**A.** Its Frax solubility increase is 4.18 fold.

**Q.** And the Frax solubility increase ([3]; with 8.82 mM SBE-β-CD)?
**A.** The Frax solubility increase was 7.61 fold.

**Q.** And the Frax solubility increase ([3]; with 8.82 mM β-CD)?
**A.** Its Frax solubility increase is 3.93 fold.

**Q.** And the Frax solubility increase ([3]; with 350 mM G2-β-CD)?
**A.** The Frax solubility increase was 156.19 fold.

**Q.** And the Frax solubility increase ([3]; with 350 mM HP-β-CD)?
**A.** Its Frax solubility increase is 83.04 fold.

**Q.** And the Frax solubility increase ([3]; with 350 mM SBE-β-CD)?
**A.** The Frax solubility increase was 171.91 fold.

**Q.** What about the cumulative drug release [4] of the same molecule?
**A.** Its cumulative drug release is less than 20%.

**Q.** And the “collagen in liver tissue (Masson, Sirius Red staining)” value [5, 8]?
**A.** The value was “no obvious inhibition”.

**Q.** And the “levels of liver fibrosis markers AST, ALT and HYP” value [5, 8]?
**A.** Its value is “no significant decrease”.

**Q.** And the “effect on liver fibrosis” value ([5]; oral 20 mg/kg daily for 7 weeks)?
**A.** Its value is “rather modest effect”.

**Q.** What about the “MCHC (mean corpuscular hemoglobin concentration)” value (from here on “MCHC”) ([6]; 5 mg/kg) of the same molecule?
**A.** Its value is 342.63 ± 10.38.

**Q.** What about the “PDW (platelet distribution width)” value ([6]; 5 mg/kg) of the same molecule?
**A.** Its value is 14.84 ± 0.12.

**Q.** And the “PLT (platelet)” value ([6]; 5 mg/kg)?
**A.** Its value is 1188.13 ± 317.24.

**Q.** What about the “WBC (white blood cell)” value ([6]; 5 mg/kg) of the same molecule?
**A.** Its value is 7.78 ± 3.91.

**Q.** And the “RBC (red blood cell)” value ([6]; 5 mg/kg)?
**A.** Its value is 9.21 ± 0.75.

**Q.** And the “HCT (haematocrit)” value ([6]; 5 mg/kg)?
**A.** The value was 39.54 ± 2.28.

**Q.** What about the “RDW-CV (red cell volume distribution width)” value (“RDW-CV” for short) ([6]; 5 mg/kg) of the same molecule?
**A.** Its value is 16.24 ± 1.32.

**Q.** What about the “MCV (mean cell volume)” value ([6]; 5 mg/kg) of the same molecule?
**A.** The value was 43.01 ± 2.17.

**Q.** What about the “MPV (meanplateletvolume)” value ([6]; 5 mg/kg) of the same molecule?
**A.** The value was 6.51 ± 0.32.

**Q.** And the RDW-SD ([6]; 5 mg/kg)?
**A.** The RDW-SD was 29.88 ± 3.52.

**Q.** What about the “HGB (hemoglobin)” value ([6]; 5 mg/kg) of the same molecule?
**A.** Its value is 135.50 ± 10.76.

**Q.** And the “MCH (mean corpuscular hemoglobin)” value ([6]; 5 mg/kg)?
**A.** The value was 14.73 ± 0.49.

**Q.** And the “MCHC” value ([6]; 10 mg/kg)?
**A.** Its value is 344.43 ± 9.64.

**Q.** And the “PDW (platelet distribution width)” value ([6]; 10 mg/kg)?
**A.** Its value is 14.91 ± 0.12.

**Q.** What about the “PLT (platelet)” value ([6]; 10 mg/kg) of the same molecule?
**A.** Its value is 1012.71 ± 281.88.

**Q.** What about the “WBC (white blood cell)” value ([6]; 10 mg/kg) of the same molecule?
**A.** Its value is 6.46 ± 2.46.

**Q.** What about the “RBC (red blood cell)” value ([6]; 10 mg/kg) of the same molecule?
**A.** The value was 8.42 ± 0.32.

**Q.** What about the “HCT (haematocrit)” value ([6]; 10 mg/kg) of the same molecule?
**A.** Its value is 37.15 ± 1.70.

**Q.** And the “RDW-CV” value ([6]; 10 mg/kg)?
**A.** The value was 16.22 ± 0.59.

**Q.** And the “MCV (mean cell volume)” value ([6]; 10 mg/kg)?
**A.** Its value is 43.80 ± 1.44.

**Q.** And the “MPV (meanplateletvolume)” value ([6]; 10 mg/kg)?
**A.** The value was 6.63 ± 0.44.

**Q.** And the RDW-SD ([6]; 10 mg/kg)?
**A.** Its RDW-SD is 30.71 ± 1.70.

**Q.** And the “HGB (hemoglobin)” value ([6]; 10 mg/kg)?
**A.** The value was 127.00 ± 5.10.

**Q.** What about the “MCH (mean corpuscular hemoglobin)” value ([6]; 10 mg/kg) of the same molecule?
**A.** The value was 15.09 ± 0.46.

**Q.** And the “MCHC” value ([6]; 20 mg/kg)?
**A.** The value was 338.75 ± 3.58.

**Q.** And the “PDW (platelet distribution width)” value ([6]; 20 mg/kg)?
**A.** Its value is 14.86 ± 0.17.

**Q.** What about the “PLT (platelet)” value ([6]; 20 mg/kg) of the same molecule?
**A.** Its value is 1190.00 ± 157.80.

**Q.** What about the “WBC (white blood cell)” value ([6]; 20 mg/kg) of the same molecule?
**A.** Its value is 8.32 ± 3.90.

**Q.** What about the “RBC (red blood cell)” value ([6]; 20 mg/kg) of the same molecule?
**A.** The value was 9.07 ± 0.33.

**Q.** And the “HCT (haematocrit)” value ([6]; 20 mg/kg)?
**A.** Its value is 38.83 ± 1.69.

**Q.** And the “RDW-CV” value ([6]; 20 mg/kg)?
**A.** Its value is 16.54 ± 0.79.

**Q.** And the “MCV (mean cell volume)” value ([6]; 20 mg/kg)?
**A.** The value was 42.83 ± 1.54.

**Q.** What about the “MPV (meanplateletvolume)” value ([6]; 20 mg/kg) of the same molecule?
**A.** The value was 6.38 ± 0.23.

**Q.** What about the RDW-SD ([6]; 20 mg/kg) of the same molecule?
**A.** Its RDW-SD is 30.13 ± 2.23.

**Q.** And the “HGB (hemoglobin)” value ([6]; 20 mg/kg)?
**A.** The value was 131.50 ± 5.66.

**Q.** And the “MCH (mean corpuscular hemoglobin)” value ([6]; 20 mg/kg)?
**A.** Its value is 14.51 ± 0.46.

**Q.** And the intestinal permeability [7]?
**A.** The intestinal permeability was “good intestinal permeability”.
